The source of these data is paper PMC11477289, “Low-Basicity 5-HT6 Receptor Ligands from the Group of Cyclic Arylguanidine Derivatives and Their Antiproliferative Activity Evaluation” (International Journal of Molecular Sciences, 2024).

A short description of series [1]: Chromatographic hydrophobicity index on C18 column (lipophilicity). In kind it is physicochemical.
Source text: We began with an assay for lipophilicity, affinity for phospholipids (for 40 compounds), and drug binding to human serum albumin (HSA) (for 20 compounds), using chromatographic protocols developed by Valko [46] and implemented in our laboratory [47]. […] These methods allowed the determination of chromatographic hydrophobicity indices (CHIs), binding to HSA (%HSA), and phospholipids (CHIIAM) using a single-gradient elution experiment and comparison to reference substances.
The target of series [2] is human serum albumin (HSA) (Homo sapiens, UniProt P02768). In words: Binding to HSA, Chiralpak HSA column. The text has this:
We began with an assay for lipophilicity, affinity for phospholipids (for 40 compounds), and drug binding to human serum albumin (HSA) (for 20 compounds), using chromatographic protocols developed by Valko [46] and implemented in our laboratory. Compounds with the highest affinity for 5-HT6R and those showing the most promising ADMET parameters, including the possibility of BBB penetration, DDI, and lipophilicity, determined in silico in SwissADME [45], were selected for testing. These methods allowed the determination of chromatographic hydrophobicity indices (CHIs), binding to HSA (%HSA), and phospholipids (CHIIAM) using a single-gradient elution experiment and comparison to reference substances.
The use of columns modified with plasma proteins, such as HSA, also allows for the estimation of binding to HSA, which is the most dominant plasma protein (PP). Binding to PP affects drug pharmacokinetics, such as distribution, half-life, and clearance.
The mobile phase flow rate was 1.5 mL/min, and the column was maintained at 30 °C. • Chiralpak® HSA (50 mm × 4 mm; 5 µm with safety guard column; Daicel Chiral Technologies, West Chester, PA, USA), mobile phase A: 50 mM ammonium acetate, mobile phase B: HPLC-grade isopropanol (VWR International, Leuven, Belgium). For the first 15 min, the linear gradient from 0 to 20% isopropanol was applied and then held at 20% isopropanol for 12 min. In the last 5 min of the sequence, the mobile phase mixture received a pure ammonium acetate solution. The column temperature was held at 30 °C, whereas the flow rate was 0.9 mL/min.
The reference substances for the calibration of HSA, C18, and IAM columns were purchased, respectively: acetanilide, butyrophenone, diclofenac, and octanonophenone (Alfa Aesar, Haverhill, MA, USA); acetophenone, benzimidazole, colchicine, indole, indometacin, paracetamol, and theophylline (Sigma-Aldrich, Steinheim, Germany); nicardipine and nizatidine (Cayman Chemical, Ann Arbor, MI, USA); carbamazepine, heptanophenone, hexanophenone, propiophenone, and valerophenone (Acros Organic, Pittsburg, PA, USA). Before chromatographic experiments, solutes were dissolved in dimethyl sulfoxide (Avantor Performance Materials Poland S.A., Gliwice, Poland) to obtain a 200 µg/mL concentration. The detection was performed in the UV region at the wavelength from 190 nm to 300 nm. The injected volume was 5 μL, and each compound was analyzed in triplicate.

Series [3] is described as follows: Affinity to phospholipids, IAM column (CHI IAM). It is filed as physicochemical. To be noted: IAM.PC.DD2 column, pH 7.4.
In series [4] the target is T1, human 5-HT6 (Homo sapiens, UniProt P50406).
T1 construct: expressed in transfected cells
As to the kind of experiment: [3H]-LSD radioligand binding assay, 5-HT6R. To be noted: HEK293 expressing human 5-HT6R, read-out: 5-HT6 Ki. As to the method: Next, the ligands’ affinity for the 5-HT6 receptors was evaluated in the [^3H]-LSD radioligand binding assay. Experiments were performed in a stable HEK293 cell line expressing the human 5-HT6R.
The pellets were stored at −80 °C.

Series [5] deals with 1321N1 astrocytoma cell line. In words: Antiproliferative activity (MTS), 1321N1. To be noted: Homo sapiens, 1321-N1, 72 h, read-out: IC50 Values 1321N1.
Series [6] relates to U87MG glioblastoma cells. As to the kind of experiment: Antiproliferative activity (MTS), U87MG. To be noted: Homo sapiens, U-87 MG, 72 h, read-out: IC50 Values U87MG.

Where two headings read alike, the source gives them in different places. Bounds are passed on as bounds.

T1 sequence (P50406 whole entry): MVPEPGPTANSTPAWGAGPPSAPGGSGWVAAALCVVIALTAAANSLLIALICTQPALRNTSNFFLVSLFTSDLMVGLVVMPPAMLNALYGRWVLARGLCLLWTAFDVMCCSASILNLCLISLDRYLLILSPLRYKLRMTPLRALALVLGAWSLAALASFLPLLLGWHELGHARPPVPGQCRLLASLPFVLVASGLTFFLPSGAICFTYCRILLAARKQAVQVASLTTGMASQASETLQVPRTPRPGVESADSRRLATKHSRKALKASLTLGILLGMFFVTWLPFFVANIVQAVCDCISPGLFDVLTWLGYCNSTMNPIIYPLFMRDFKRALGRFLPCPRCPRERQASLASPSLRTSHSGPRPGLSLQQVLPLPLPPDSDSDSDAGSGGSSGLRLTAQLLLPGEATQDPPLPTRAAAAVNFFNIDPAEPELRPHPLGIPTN
Chain of human serum albumin (HSA) (P02768 25-609): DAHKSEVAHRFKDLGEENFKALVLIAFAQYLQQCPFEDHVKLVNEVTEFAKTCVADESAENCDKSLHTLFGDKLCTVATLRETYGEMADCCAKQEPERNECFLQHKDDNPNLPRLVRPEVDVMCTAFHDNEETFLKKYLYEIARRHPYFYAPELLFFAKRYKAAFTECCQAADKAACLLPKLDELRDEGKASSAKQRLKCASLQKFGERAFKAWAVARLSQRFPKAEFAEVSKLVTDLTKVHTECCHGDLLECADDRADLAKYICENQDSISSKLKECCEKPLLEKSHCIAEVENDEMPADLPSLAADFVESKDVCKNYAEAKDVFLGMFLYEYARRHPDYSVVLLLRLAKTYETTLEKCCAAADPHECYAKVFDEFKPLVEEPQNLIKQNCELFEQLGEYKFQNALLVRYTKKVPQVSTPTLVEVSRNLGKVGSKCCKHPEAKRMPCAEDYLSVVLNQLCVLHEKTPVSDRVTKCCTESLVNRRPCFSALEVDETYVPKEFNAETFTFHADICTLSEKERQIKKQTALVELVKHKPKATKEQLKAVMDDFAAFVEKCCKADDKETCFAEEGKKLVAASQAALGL

As to `CN1CCN2c3ccccc3Cc3ccccc3C2C1` (stereo not shown) [Mianserin, reference compound], in series [1], the “CHI C18 pH 2.6” value worked out at 59.4, the “CHI C18 pH 7.4” value is reported as 108.6 and the “CHI C18 pH 10.5” value turned out to be 98.7. Also, in series [2] (Chiralpak HSA column), the “%HSA” value was 90.9% and the logKHSA came out at 0.95. Besides, the “CHI IAM” value in series [3] worked out at 44.2.
Consider `CN1CCN2c3ncccc3Cc3ccccc3C2C1` (stereo not shown) [Mirtazapine, reference compound], for which, in series [1], the “CHI C18 pH 2.6” value was determined as 46.7, the “CHI C18 pH 7.4” value is 101.2 and the “CHI C18 pH 10.5” value is on record as 79.0. In series [2] (Chiralpak HSA column), the “%HSA” value turned out to be 76.9% and the logKHSA is 0.51. In series [3], the “CHI IAM” value is 39.3.
For `CC1NC(NS(=O)(=O)c2cccc3ccccc23)=Nc2ccccc21` (stereo not shown) [PR 67, N -(4-methyl-3,4-dihydroquinazolin-2-yl)naphthalene-1-sulfonamide], the melting point lay in the range of 169 to 174 °C. Besides, the Ki in series [4] turned out to be 236 ± 58 nM. In series [5], the IC50 was above 25000 nM. For the same molecule, in series [6], the IC50 is above 25000 nM.
As to `COc1ccc(C(CN(C)C)C2(O)CCCCC2)cc1` (stereo not shown) [Venlafaxine, reference compound], in series [1], the “CHI C18 pH 2.6” value is on record as 53.5, the “CHI C18 pH 7.4” value was determined as 82.2 and the “CHI C18 pH 10.5” value stood at 92.9. In addition, the logKHSA in series [2] (Chiralpak HSA column) is on record as -0.55. Further, in series [3], the “CHI IAM” value was 29.9.
In the case of `O=S(=O)(NC1=Nc2ccccc2CN1)c1ccc(Cl)c(Cl)c1` [PR 21, N -(3,4-dihydroquinazolin-2-yl)-3,4-dichlorobenzene-1-sulfonamide], the melting point lay in the range of 192 to 193 °C. In series [1], the “CHI C18 pH 2.6” value was 94.2, the “CHI C18 pH 7.4” value turned out to be 92.3 and the “CHI C18 pH 10.5” value turned out to be 95.2. Also, the Ki in series [4] was determined as 1020 ± 256 nM. The “CHI IAM” value in series [3] turned out to be 42.0.
Consider `O=S(=O)(NC1=Nc2ccccc2CN1)c1cc(Cl)cc(Cl)c1` [PR 23, 3,5-dichloro-N-(3,4-dihydroquinazolin-2-yl)benzene-1-sulfonamide], for which the melting point lay in the range of 208 to 211 °C. For the same molecule, in series [1], the “CHI C18 pH 2.6” value is 95.2, the “CHI C18 pH 7.4” value came to 94.6 and the “CHI C18 pH 10.5” value is recorded as 97.7. Further, the Ki in series [4] was 609 ± 152 nM. Further, the “CHI IAM” value in series [3] was 42.6.
Molecule `O=S(=O)(NC1=Nc2cccc(Cl)c2CN1)c1ccc2ccccc2c1` [PR 31, N -(5-chloro-3,4-dihydroquinazolin-2-yl)naphthalene-2-sulfonamide] came in with a melting point of 202 to 204 °C. Moreover, in series [1], the “CHI C18 pH 2.6” value is on record as 99.7, the “CHI C18 pH 7.4” value turned out to be 97.4 and the “CHI C18 pH 10.5” value amounted to 100.6. In addition, the Ki in series [4] is 2170 ± 538 nM. Besides, the “CHI IAM” value in series [3] is given as 46.0.
With `CC1NC(NS(=O)(=O)c2cccc3ccccc23)=Nc2cc(Cl)ccc21` (stereo not shown) [PR 70, N -(7-chloro-4-methyl-3,4-dihydroquinazolin-2-yl)naphthalene-1-sulfonamide], the melting point lay in the range of 214 to 219 °C. For the same molecule, in series [1], the “CHI C18 pH 2.6” value worked out at 100.2, the “CHI C18 pH 7.4” value came out at 99.7 and the “CHI C18 pH 10.5” value is 101.0. Also, the Ki in series [4] turned out to be 985 ± 245 nM. In addition, the “CHI IAM” value in series [3] was determined as 45.8.
In the case of `O=S(=O)(NC1=Nc2cc(Cl)ccc2CN1)c1cccc2ccccc12` [PR 48, N -(7-chloro-3,4-dihydroquinazolin-2-yl)naphthalene-1-sulfonamide], the melting point was 214 to 219 °C. In addition, in series [1], the “CHI C18 pH 2.6” value is recorded as 97.6, the “CHI C18 pH 7.4” value is recorded as 97.1 and the “CHI C18 pH 10.5” value stood at 95.9. For the same molecule, the Ki in series [4] is 668 ± 156 nM. For the same molecule, in series [3], the “CHI IAM” value turned out to be 44.6.
On to `CN(C)CCC=C1c2ccccc2CCc2ccccc21` [Amitriptyline, reference compound], for which, in series [1], the “CHI C18 pH 2.6” value stood at 65.9, the “CHI C18 pH 7.4” value is reported as 112.0 and the “CHI C18 pH 10.5” value is 116.3. In series [2], the “%HSA” value was found to be 88.9%. In series [2] (Chiralpak HSA column), this molecule came in with a logKHSA of 0.87. For the same molecule, in series [3], the “CHI IAM” value is 47.0.
In the case of `COc1cccc2c1C(=O)c1c(O)c3c(c(O)c1C2=O)C[C@@](O)(C(=O)CO)C[C@@H]3O[C@H]1C[C@H](N)[C@H](O)[C@H](C)O1` [Doxorubicin, reference compound], in series [5], the IC50 was 1100 nM.
Regarding `O=S(=O)(NC1=Nc2ccccc2CN1)c1ccccc1Cl` [PR 18, 2-chloro-N-(3,4-dihydroquinazolin-2-yl)benzene-1-sulfonamide], the melting point lay within 217 to 222 °C. Also, in series [1], the “CHI C18 pH 2.6” value came to 76.4, the “CHI C18 pH 7.4” value was determined as 76.3 and the “CHI C18 pH 10.5” value turned out to be 86.6. Moreover, the Ki in series [4] was determined as 1800 ± 451 nM. For the same molecule, in series [3], the “CHI IAM” value was 33.5.
Regarding `COc1ccc2c(c1)N=C(NS(=O)(=O)c1cccc3ccccc13)NC2` [PR 60, N -(7-methoxy-3,4-dihydroquinazolin-2-yl)naphthalene-1-sulfonamide], the melting point was 213 to 217 °C. For the same molecule, in series [1], the “CHI C18 pH 2.6” value is on record as 88.2, the “CHI C18 pH 7.4” value came out at 87.0 and the “CHI C18 pH 10.5” value is given as 90.3. Moreover, the Ki in series [4] is 1410 ± 326 nM. For the same molecule, the “CHI IAM” value in series [3] stood at 39.2.
For the molecule `O=S(=O)(NC1=Nc2ccccc2CN1)c1ccc(F)cc1` [PR 14, N-(3,4-dihydroquinazolin-2-yl)-4-fluorobenzene-1-sulfonamide], the melting point was in the range of 215 to 216 °C. Also, in series [1], the “CHI C18 pH 2.6” value is 75.4, the “CHI C18 pH 7.4” value came to 75.0 and the “CHI C18 pH 10.5” value is reported as 75.7. The Ki in series [4] worked out at 2440 ± 610 nM. Also, the “CHI IAM” value in series [3] is reported as 31.3.
In turn, `O=S(=O)(NC1=Nc2ccc(Cl)c(Cl)c2CN1)c1cccc2ccccc12` [PR 50, N -(5,6-dichloro-3,4-dihydroquinazolin-2-yl)naphthalene-1-sulfonamide] gave a melting point of 233 to 240 °C. Moreover, in series [1], the “CHI C18 pH 2.6” value came out at 106.2, the “CHI C18 pH 7.4” value is 103.9 and the “CHI C18 pH 10.5” value was 108.6. Further, the Ki in series [4] is 451 ± 102 nM. Also, the “CHI IAM” value in series [3] is given as 49.0.
`Cc1ccc2c(c1)N=C(NS(=O)(=O)c1cccc3ccccc13)NC2` [PR 62, N -(7-methyl-3,4-dihydroquinazolin-2-yl)naphthalene-1-sulfonamide] came in with a melting point of 166 to 175 °C. Besides, in series [1], the “CHI C18 pH 2.6” value was 93.2, the “CHI C18 pH 7.4” value amounted to 93.0 and the “CHI C18 pH 10.5” value turned out to be 93.7. The Ki in series [4] stood at 653 ± 151 nM. For the same molecule, the “CHI IAM” value in series [3] is reported as 41.6.
As to `O=S(=O)(NC1=Nc2cccc(Cl)c2CN1)c1cccc2ccccc12` [PR 46, N -(5-chloro-3,4-dihydroquinazolin-2-yl)naphthalene-1-sulfonamide], in series [4], the Ki is 160 ± 36 nM. Moreover, the IC50 in series [5] and in series [6] was above 25000 nM in each case.
The molecule `CC1NC(NS(=O)(=O)c2ccc3ccccc3c2)=Nc2cc(Cl)ccc21` (stereo not shown) [PR 37, N -(7-chloro-4-methyl-3,4-dihydroquinazolin-2-yl)naphthalene-2-sulfonamide] yielded a melting point of 167 to 171 °C. Further, in series [1], the “CHI C18 pH 2.6” value is listed as 101.0, the “CHI C18 pH 7.4” value amounted to 100.1 and the “CHI C18 pH 10.5” value amounted to 102.6. Further, the Ki in series [4] came out at 2220 ± 534 nM. In addition, the “CHI IAM” value in series [3] turned out to be 46.1.
